Reference: US10768161B2, “Method for ecological risk assessment of heavy metal in river basin sediment based on toxicity effect” (CHINESE RESEARCH ACADEMY OF ENV[…], priority 2015, dated 2020)

Columns and labels:
[1] = Ecological risk assessment of heavy metals in a lake basin sediment; conditions: for Toxicity response coefficient: Tr^i=S^i*(5/BPI)^x, lake BPI=6.7; for Pollution risk index: ecological risk index Er^i=Tr^i*cf^i for the lake
From the text: (8) calculating the toxicity response coefficient Tr^i of the i^th heavy metal according to the formula Tr^i=S^i*(5/BPI)^X one by one, where BPI is the biological yield index of the water body evaluated and the value of x is 1, ½ or 0;
(9) calculating the ecological risk index Er^i of the i^th heavy metal according to the formula Er^i=Tr^i*cf^i one by one, and the resulting Er^i is used to evaluate the ecological risk of a single metal to the assessed river basin: when Er^i<30, the ecological hazard of the i^th heavy metal to the assessed river basin is slight, when 30≤Er^i<60, the ecological hazard of the i^th heavy metal to the assessed river basin is medium, when 60≤Er^i<120, the ecological hazard of the i^th heavy metal to the assessed river basin is strong, when 120≤Er^i<240, the ecological hazard of the i^th heavy metal to the assessed river basin is very strong, when Er^i>240, the ecological hazard of the i^th heavy metal to the assessed river basin is extremely strong.
Preferably, the ecological assessment method described above also includes the step (10), that is using the formula RI=Σi=1^N Er^i to calculate the total ecological risk comprehensive index RI caused by multiple heavy metal pollutants in the water body and then using RI to evaluate the ecological risk of the assessed river basin: when RI<150, there is a slight ecological hazard in the river basin, when 150≤RI<300, there is a medium ecological hazard in the river basin, when 300≤RI<600, there is a very strong ecological hazard in the river basin, when RI≥600, there is an extremely strong ecological hazard in the river basin.
Preferably, the BPI described in step (8) is the bioproduction index, which is determined by the burning amount and nitrogen content of the sediment samples. BPI indicates the sensitivity of water to heavy metal pollutions, namely the effects of Eh and pH of pore water in sediments, and pH, salinity, and alkalinity of overlying water on the various heavy metals in the water.
Preferably, the value of x described in step (8) is determined by the type of heavy metals that is measured. The toxicity response coefficient of Hg decreases with the increase of BPI, and the relationship between them is linear. Therefore, when the measured metal is Hg, the value of x is 1. The toxicity response coefficient of As is independent of BPI. Therefore, when the measured metal is As, the value of x is 0. The toxicity response coefficient of other heavy metals also decreases with the increase of BPI, but it is not linear. Therefore, when the measured metal is not Hg or As, the value of x is ½.

aquatic organisms [2] = experiment: Species Sensitivity Distributions (SSD) curve fitting, toxic concentration HC5; parameters: Toxic concentration: unit not given here; conditions: for Toxic concentration: HC5^i, protects 95% of aquatic organisms, Table 3
From the text: (5) collecting the chronic toxicity data of the i^th heavy metal on aquatic species selected in step (1), performing curve fitting on the collected data, and selecting the curve regression equation with the highest goodness of fit, so as to obtain the best equation for the sensitivity of the i^th heavy metal;
(6) drawing a fitting curve (Species Sensitivity Distributions, SSD) according to the best fitting equation obtained in step (5), and setting the y value of this equation, that is, the cumulative probability to 0.05, and then calculating the corresponding x value, which is the toxic concentration HC5^i of the i^th heavy metal that protects 95% of aquatic organisms;
Preferably, plotting the collected concentration values of toxicity data for different species of organisms against the quantiles arranged in concentration, and selecting the curve equation to fit based on the resulting data point distribution shape. The fitting should adopt several different functions and select the optimal regression curve, so as to avoid the systematic errors introduced by improper selection of functions. When the distribution of the toxicity data points is a common S-type, the fitting curves are preferred to use the log-Normal distribution function, the log-logistic distribution function, the log-triangular distribution function, or a combination thereof. When the distribution of the toxicity data points is different from the common S-type distribution, other curves or non-parametric methods can be used to fit the data points, for example, using the Burr type III distribution function as the regression curve equation of the toxicity data of heavy metals.
Preferably, the goodness of fit described in step (5) is determined by the toxicity data points and the judgment coefficient R^2 of the resulting curve regression equation: when the judgment coefficient R^2 of the curve regression equation gets closer to 1, the goodness of the curve regression equation for the data is higher.
Preferably, the concentration HC5^i of the i^th heavy metal that protects 95% of aquatic organisms described in step (6) is the toxicity data corresponding to the cumulative probability of 5% aquatic organisms on the fitted curve.

[3] = cited from earlier work; for Release coefficient: Table 3
aquatic organisms [4] = experiment: Integration and normalization of release coefficient and HC5 to toxicity coefficient S^i; conditions: for Toxicity coefficient: Table 4; for Square root (toxicity coefficient S^i): final step of integration and normalization, Table 3
From the text: (7) repeating steps (4) to (6) n times to obtain the release coefficient cs^i and toxic concentration HC5^i of each heavy metal determined in step (2), and integrating and normalizing the release coefficient cs^i and toxic concentration HC5^i of each heavy metal to obtain the toxicity coefficient S^i of the i^th heavy metal;
Preferably, the integrating and normalizing regulation described in step (7) comprises the following calculation steps:
a. calculating the reciprocal of the concentration HC5^i of the i^th heavy metal, and keeping three significant figures for each value obtained;
b. dividing each reciprocal number obtained in step a by the smallest one of them, and keeping three significant figures for each value obtained;
c. multiplying each value obtained in step b by the release coefficient cs^i of the corresponding i^th heavy metal;
d. dividing each value obtained in step c by the smallest one of them, and keeping three significant figures for each value obtained; […]

Protosalanx hyalocranius = conditions: chronic toxicity, Fishes; cited from earlier work
Chironomus = conditions: chronic toxicity, Zoobenthos; cited from earlier work
Brachionus calyciflorus = conditions: chronic toxicity, Zooplankton; cited from earlier work
Arenaceous sanding = conditions: chronic toxicity, Zooplankton; cited from earlier work
Corbicula fluminea = conditions: chronic toxicity, Zoobenthos; cited from earlier work
Duckweed = conditions: chronic toxicity, Hydrophyte; cited from earlier work
Carp = conditions: chronic toxicity, Fishes; cited from earlier work
Coilia nasus taihuensis = conditions: chronic toxicity, Fishes; cited from earlier work
Azolla pinnata = conditions: chronic toxicity, Hydrophyte; cited from earlier work
Bosmina = conditions: chronic toxicity, Zooplankton; cited from earlier work
Cryptophyta = conditions: chronic toxicity, Phytoplankton; cited from earlier work
Pyrrophyta = conditions: chronic toxicity, Phytoplankton; cited from earlier work
Scenedesmus = conditions: chronic toxicity, Phytoplankton; cited from earlier work
Bellamya aeruginosa = conditions: chronic toxicity; Zoobenthos, Bellamya aeruginose; cited from earlier work
Wild lotus = conditions: chronic toxicity, Hydrophyte; cited from earlier work

| Compound | Toxicity response coefficient [1] | Pollution risk index [1] | Toxic concentration (aquatic organisms [2]) | Release coefficient [3] | Toxicity coefficient (aquatic organisms [4]) | Square root (toxicity coefficient S^i) (aquatic organisms [4]) | also measured |
| --- | --- | --- | --- | --- | --- | --- | --- |
| [As] [As] | 1.50 | 1.05 | 14.9 | 27 | 1.50 | 1.5 | – |
| [Cd] [Cd] | 24.19 | 18.38 | 0.3 | 200 | 28.00 | 28 | – |
| [Cr] [Cr] | 0.86 | 0.68 | 2.42 | 2 | 1.00 | 1 | Toxicity data (NOEC) (Protosalanx hyalocranius): 4405 µg/kg; Toxicity data (NOEC) (Chironomus): 20 µg/kg; Toxicity data (NOEC) (Brachionus calyciflorus): 1789 µg/kg; Toxicity data (NOEC) (Arenaceous sanding): 1500 µg/kg; toxic concentration HC5^i that protects 95% of aquatic organisms (aquatic organisms [2]; cumulative probability 0.05 on log-logistic SSD fit of chronic toxicity data): 2.42 µg/L; Toxicity data (NOEC) (Corbicula fluminea): 1.13 µg/kg; release coefficient cs^1 ([3]; from the literature): 2×10^−3; Toxicity data (NOEC) (Duckweed): 1000 µg/kg; Toxicity data (NOEC) (Carp): 23516 µg/kg; Toxicity data (NOEC) (Coilia nasus taihuensis): 6941 µg/kg; Toxicity data (NOEC) (Azolla pinnata): 625 µg/kg; Toxicity data (NOEC) (Bosmina): 46.5 µg/kg; Toxicity data (NOEC) (Cryptophyta): 317 µg/kg; Toxicity data (NOEC) (Pyrrophyta): 671 µg/kg; Toxicity data (NOEC) (Scenedesmus): 8 µg/kg; Toxicity data (NOEC) (Bellamya aeruginosa): 250 µg/kg; Toxicity data (NOEC) (Wild lotus): 123 µg/kg |
| [Cu] [Cu] | 14.69 | 26.73 | 0.89 | 200 | 17.00 | 17 | – |
| [Hg] [Hg] | 20.15 | 54.40 | 0.53 | 320 | 27.00 | 27 | ecological hazard to the lake ([1]; class by Er^i of single metal): medium (when 30≤Er^i<60, the ecological hazard of the i^th heavy metal to the assessed river basin is medium) |
| [Ni] [Ni] | 4.75 | 3.85 | 6.03 | 147 | 5.50 | 5.5 | – |
| [Pb] [Pb] | – | – | – | 71 | – | – | – |
| [Zn] [Zn] | 2.16 | 2.66 | 10.83 | 57 | 2.50 | 2.5 | – |
